Laboratory results from patent US20250250263A1, “INHIBITING HISTONE DEACETYLASE 6 (HDAC6)” (Eikonizo Therapeutics, Inc., priority 2022, published 2025).

Legend:
Human HDAC6 = Human HDAC6 (Homo sapiens (Human), UniProt Q9UBN7); assay: In vitro HDAC6 enzymatic activity (Caliper endpoint assay or fluorogenic Nanosyn assay); format: biochemical; settings: ratio of HDAC8 IC50/HDAC6 IC50
Human HDAC8 = Human HDAC8 (Homo sapiens (Human), UniProt Q9BY41); assay: In vitro HDAC8 enzymatic activity (Caliper endpoint assay); format: biochemical
Human HDAC8, sequence (Q9BY41 whole entry): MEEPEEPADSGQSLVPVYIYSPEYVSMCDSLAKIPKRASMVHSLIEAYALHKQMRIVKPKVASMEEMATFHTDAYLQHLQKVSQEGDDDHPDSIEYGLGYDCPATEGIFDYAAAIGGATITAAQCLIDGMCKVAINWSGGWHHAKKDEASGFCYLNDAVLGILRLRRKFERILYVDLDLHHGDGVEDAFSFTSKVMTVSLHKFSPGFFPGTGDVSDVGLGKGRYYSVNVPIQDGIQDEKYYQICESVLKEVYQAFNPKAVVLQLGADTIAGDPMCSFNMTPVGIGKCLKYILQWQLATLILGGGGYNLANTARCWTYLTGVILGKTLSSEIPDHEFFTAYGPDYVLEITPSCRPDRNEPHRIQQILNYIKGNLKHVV

Human HDAC6, sequence (Q9UBN7 whole entry): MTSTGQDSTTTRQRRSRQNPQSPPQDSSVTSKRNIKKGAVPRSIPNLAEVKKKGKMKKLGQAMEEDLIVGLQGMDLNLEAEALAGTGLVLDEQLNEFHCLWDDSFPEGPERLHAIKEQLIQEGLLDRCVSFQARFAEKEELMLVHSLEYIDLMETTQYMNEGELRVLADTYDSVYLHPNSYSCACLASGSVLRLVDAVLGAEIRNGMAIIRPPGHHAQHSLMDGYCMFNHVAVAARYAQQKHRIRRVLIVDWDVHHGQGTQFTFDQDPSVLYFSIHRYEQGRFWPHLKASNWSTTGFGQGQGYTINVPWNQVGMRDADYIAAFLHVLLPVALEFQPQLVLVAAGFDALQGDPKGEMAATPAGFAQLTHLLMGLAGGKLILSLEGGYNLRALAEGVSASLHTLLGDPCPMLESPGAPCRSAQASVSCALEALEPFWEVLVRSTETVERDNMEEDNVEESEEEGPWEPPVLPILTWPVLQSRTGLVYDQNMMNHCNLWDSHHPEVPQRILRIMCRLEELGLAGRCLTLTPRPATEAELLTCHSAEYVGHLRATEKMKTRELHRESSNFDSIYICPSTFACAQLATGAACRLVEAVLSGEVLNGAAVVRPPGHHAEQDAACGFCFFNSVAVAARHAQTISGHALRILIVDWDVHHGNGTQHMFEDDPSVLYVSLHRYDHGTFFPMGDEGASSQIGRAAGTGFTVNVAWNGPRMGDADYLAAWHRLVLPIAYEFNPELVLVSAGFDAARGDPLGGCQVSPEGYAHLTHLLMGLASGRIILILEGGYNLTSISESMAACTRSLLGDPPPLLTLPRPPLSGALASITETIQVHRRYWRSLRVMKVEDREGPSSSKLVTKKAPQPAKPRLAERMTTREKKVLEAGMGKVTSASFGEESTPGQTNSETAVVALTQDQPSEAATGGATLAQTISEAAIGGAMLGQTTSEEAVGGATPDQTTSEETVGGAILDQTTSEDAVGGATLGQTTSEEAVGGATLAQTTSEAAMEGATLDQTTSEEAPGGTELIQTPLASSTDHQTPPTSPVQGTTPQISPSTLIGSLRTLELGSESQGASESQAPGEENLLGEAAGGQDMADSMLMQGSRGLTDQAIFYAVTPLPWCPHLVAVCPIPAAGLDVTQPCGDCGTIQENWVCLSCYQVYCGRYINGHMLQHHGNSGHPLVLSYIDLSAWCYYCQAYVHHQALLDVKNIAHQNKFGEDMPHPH

SMILES | Selectivity (6 v 8) (fold) (Human HDAC6) | IC50 (Human HDAC8) [µM]
FC(F)c1nnc(-c2ccc(COc3ccc4cccnc4c3)nc2)o1 [Compound 34] | V (V: >1000) | > 100
FC(F)c1nnc(-c2ccc(COc3cccc4ncccc34)nc2)o1 [Compound 63] | V (V: >1000) | > 100
N#Cc1cc(OCc2ccc(-c3nnc(C(F)F)o3)cn2)ccc1F [Compound 30, 5-((5-(5-(difluoromethyl)-1,3,4-oxadiazol-2-yl)pyridin-2-yl)methoxy)-2-fluorobenzonitrile] | IV (IV: >100-1000) | –
